Data taken from patent publication US11053204B2, “Pyrimidinyloxy benzene derivatives as herbicides” (FMC Corporation, priority 2015, dated 2021).

Columns and labels:
Type in all cases: in vivo
[1] = test system: galium (catchweed bedstraw, Galium aparine); assay: Test A postemergence, visual injury rating; details: 0 is no effect, 100 is complete control
Outline: (§1)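 Pre- and postemergence greenhouse screen. Soil: loam + sand. Spray carrier: solvent mixture, non-phytotoxic, with surfactant. Post timing at 1–2 leaves, height 2–10 cm. Readout: visual injury on a 0–100 scale roughly 10 days after application, untreated plants as reference.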

[2] = test system: pigweed (Amaranthus retroflexus); assay: Test A postemergence, visual injury rating; details: 0 is no effect, 100 is complete control
Outline: as §1

[3] = test system: ragweed (common ragweed, Ambrosia elatior); assay: Test A postemergence, visual injury rating; details: 0 is no effect, 100 is complete control
Outline: as §1

[4] = test system: giant foxtail (Setaria faberii); assay: Test A postemergence, visual injury rating; details: 0 is no effect, 100 is complete control
Outline: as §1

[5] = test system: corn (Zea mays); assay: Test A postemergence, visual injury rating; details: 0 is no effect, 100 is complete control
Outline: as §1

[6] = test system: barnyardgrass (Echinochloa crus-galli); assay: Test A postemergence, visual injury rating; details: 0 is no effect, 100 is complete control
Outline: as §1

[7] = test system: Italian ryegrass (Lolium multiflorum); assay: Test A postemergence, visual injury rating; details: 0 is no effect, 100 is complete control
Outline: as §1

[8] = test system: blackgrass (Alopecurus myosuroides); assay: Test A postemergence, visual injury rating; details: 0 is no effect, 100 is complete control
Outline: as §1

[9] = test system: kochia (Kochia scoparia); assay: Test A postemergence, visual injury rating; details: 0 is no effect, 100 is complete control
Outline: as §1

[10] = test system: wheat (Triticum aestivum); assay: Test A postemergence, visual injury rating; details: 0 is no effect, 100 is complete control
Outline: as §1

[11] = test system: ryegrass, Italian (Italian ryegrass, Lolium multiflorum); assay: Test C postemergence, plant response rating; details: for Ryegrass, Italian plant response rating: scale 0 to 100 (0 no effect, 100 complete control)
Outline: (§2)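 Both timings shared one formulation, a non-phytotoxic solvent mixture with surfactant, and a greenhouse period of 13 to 15 d. Preemergence used seeded loam/sand or silt loam soil, postemergence used 2 to 18 cm plants; visual ratings ran from 0 (no effect) to 100 (complete control).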

[12] = test system: chickweed (common chickweed, Stellaria media); assay: Test C postemergence, plant response rating; details: for Chickweed plant response rating: scale 0 to 100 (0 no effect, 100 complete control)
Outline: as §2

[13] = test system: lambsquarters (Chenopodium album); assay: Test C postemergence, plant response rating; details: for Lambsquarters plant response rating: scale 0 to 100 (0 no effect, 100 complete control)
Outline: as §2

[14] = test system: soybean (Glycine max); assay: Test C postemergence, plant response rating; details: for Soybean plant response rating: scale 0 to 100 (0 no effect, 100 complete control)
Outline: as §2

[15] = test system: ragweed (common ragweed, Ambrosia elatior); assay: Test C postemergence, plant response rating; details: for Ragweed plant response rating: scale 0 to 100 (0 no effect, 100 complete control)
Outline: as §2

[16] = test system: velvetleaf (Abutilon theophrasti); assay: Test C postemergence, plant response rating
Outline: as §2

[17] = test system: oat, wild (wild oat Avena fatua); assay: Test C postemergence, plant response rating; details: for Oat, Wild plant response rating: scale 0 to 100 (0 no effect, 100 complete control)
Outline: as §2

[18] = test system: foxtail, giant (giant foxtail, Setaria faberii); assay: Test C postemergence, plant response rating; details: for Foxtail, Giant plant response rating: scale 0 to 100 (0 no effect, 100 complete control)
Outline: as §2

[19] = test system: waterhemp (common waterhemp, Amaranthus rudis); assay: Test C postemergence, plant response rating
Outline: as §2

[20] = 125 g ai/ha, 0 to 100 scale, approximately 10 days
[21] = 125 g ai/ha, scale 0 to 100 (0 no effect, 100 complete control)

## CCCC(=O)c1c(Oc2ncc(Cl)cn2)cccc1C(F)(F)F [Compound 136]
[1]; [20]
  Galium plant response rating: 40
[1]; 500 g ai/ha
  Galium plant response rating (0 to 100 scale): 100
[2]; [20]
  Pigweed plant response rating: 100
[2]; 500 g ai/ha
  Pigweed plant response rating (0 to 100 scale): 100
[3]; [20]
  Ragweed plant response rating: 20
[3]; 500 g ai/ha
  Ragweed plant response rating (0 to 100 scale): 60
[4]; [20]
  Foxtail, Giant plant response rating: 30
[4]; 500 g ai/ha
  Foxtail, Giant plant response rating (0 to 100 scale): 90
[5]; [20]
  Corn plant response rating: 20
[5]; 500 g ai/ha
  Corn plant response rating (0 to 100 scale): 50
[6]; [20]
  Barnyardgrass plant response rating: 30
[6]; 500 g ai/ha
  Barnyardgrass plant response rating (0 to 100 scale): 80
[7]; [20]
  Ryegrass, Italian plant response rating: 10
[7]; 500 g ai/ha
  Ryegrass, Italian plant response rating (0 to 100 scale): 70
[8]; [20]
  Blackgrass plant response rating: 50
[8]; 500 g ai/ha
  Blackgrass plant response rating (0 to 100 scale): 100
[9]; [20]
  Kochia plant response rating: 80
[9]; 500 g ai/ha
  Kochia plant response rating (0 to 100 scale): 100
[10]; [20]
  Wheat plant response rating: 10
[10]; 500 g ai/ha
  Wheat plant response rating (0 to 100 scale): 20
[11]; 16 g ai/ha, scale of 0 to 100
  Plant response rating, Ryegrass, Italian: 0
[11]; 31 g ai/ha, scale 0 to 100
  Plant response rating, Ryegrass, Italian: 5
[11]; 62 g ai/ha
  Ryegrass, Italian plant response rating: 5
[11]; 125 g ai/ha
  Ryegrass, Italian plant response rating: 10
[12]; 16 g ai/ha, scale of 0 to 100
  Plant response rating, Chickweed: 55
[12]; 31 g ai/ha, scale 0 to 100
  Plant response rating, Chickweed: 65
[12]; 62 g ai/ha
  Chickweed plant response rating: 75
[12]; 125 g ai/ha
  Chickweed plant response rating: 80
[13]; 16 g ai/ha, scale of 0 to 100
  Plant response rating, Lambsquarters: 55
[13]; 31 g ai/ha, scale 0 to 100
  Plant response rating, Lambsquarters: 75
[13]; 62 g ai/ha
  Lambsquarters plant response rating: 80
[13]; 125 g ai/ha
  Lambsquarters plant response rating: 80
[14]; 16 g ai/ha, scale of 0 to 100
  Plant response rating, Soybean: 30
[14]; 31 g ai/ha, scale 0 to 100
  Plant response rating, Soybean: 40
[14]; 62 g ai/ha
  Soybean plant response rating: 50
[14]; 125 g ai/ha
  Soybean plant response rating: 40
[15]; 16 g ai/ha, scale of 0 to 100
  Plant response rating, Ragweed: 20
[15]; 31 g ai/ha, scale 0 to 100
  Plant response rating, Ragweed: 20
[15]; 62 g ai/ha
  Ragweed plant response rating: 30
[15]; 125 g ai/ha
  Ragweed plant response rating: 35
[16]; 16 g ai/ha, scale of 0 to 100
  Plant response rating, Velvetleaf: 20
[16]; 31 g ai/ha, scale 0 to 100
  Plant response rating, Velvetleaf: 50
[16]; [21]
  Velvetleaf plant response rating: 70
[17]; 16 g ai/ha, scale of 0 to 100
  Plant response rating, Oat, Wild: 5
[17]; 31 g ai/ha, scale 0 to 100
  Plant response rating, Oat, Wild: 5
[17]; 62 g ai/ha
  Oat, Wild plant response rating: 10
[17]; 125 g ai/ha
  Oat, Wild plant response rating: 10
[18]; 16 g ai/ha, scale of 0 to 100
  Plant response rating, Foxtail, Giant: 10
[18]; 31 g ai/ha, scale 0 to 100
  Plant response rating, Foxtail, Giant: 20
[18]; 62 g ai/ha
  Foxtail, Giant plant response rating: 10
[18]; 125 g ai/ha
  Foxtail, Giant plant response rating: 25
[19]; 16 g ai/ha, scale of 0 to 100
  Plant response rating, Waterhemp: 70
[19]; 31 g ai/ha, scale 0 to 100
  Plant response rating, Waterhemp: 70
[19]; [21]
  Waterhemp plant response rating: 75
